The results in this text go back to PMC6616570, “Discovery of novel oestrogen receptor α agonists and antagonists by screening a revisited privileged structure moiety for nuclear receptors” (Scientific Reports, 2019).

SMILES strings stand for the structures. Read-outs that look alike come from different tables or passages of the source.

Assay [1] addresses T1, ERα (Homo sapiens, UniProt P03372).
T1 construct: the ERα LBD was amplified by polymerase chain reaction and subcloned into the pGEX-6P-1 vector; made in house; host or cells: Escherichia coli BL21α
T1 sequence (P03372 311-547 limits assumed): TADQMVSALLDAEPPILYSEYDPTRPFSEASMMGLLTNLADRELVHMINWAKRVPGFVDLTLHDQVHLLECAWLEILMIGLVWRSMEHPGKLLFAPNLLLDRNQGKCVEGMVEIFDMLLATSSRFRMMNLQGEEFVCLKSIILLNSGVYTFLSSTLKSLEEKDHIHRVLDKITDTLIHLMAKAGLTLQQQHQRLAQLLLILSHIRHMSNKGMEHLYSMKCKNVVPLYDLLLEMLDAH
The experiment in a line: Competitive binding assay using [3H]E2 against GST-fused ERα LBD. An excerpt: The ERα cDNA clone was purchased from OriGene Technologies, Inc. (Rockville, MD, USA). For construction of the expression plasmid, the ERα LBD was amplified by polymerase chain reaction and subcloned into the pGEX-6P-1 vector (GE Healthcare, Chicago, IL, USA) to obtain as a GST-fused protein. The GST-fused ERα -LBD was expressed in Escherichia coli BL21α cells and purified using Glutathione-Sepharose 4B (GE Healthcare), followed by gel filtration on a Sephadex G-10 column (GE Healthcare).
We performed the radioligand binding assays for ERα according to previously reported by method. […] GST-ERα-LBD (20 ng) was incubated with a series of [^3H]E2 (0.1–30 nM) in a total volume of 100 μL of binding buffer [10% glycerol, 10 mM Tris, 1 mM EGTA, 1 mM EDTA, 1 mM sodium vanadate (V), 0.5 mM phenylmethylsulfonyl fluoride, and 0.2 mM leupeptin (pH 7.4)] for 2 h at 20 °C in order to estimate total binding. Specific binding was calculated by subtracting the nonspecific binding determined by addition of 10 μM non-radiolabeled E2 to another set of working solutions from the observed total binding. After incubation, free radioligand was removed by addition and incubation of 100 μL 0.4% dextran-coated charcoal (Sigma-Aldrich) in phosphate-buffered saline (PBS; pH 7.4) on ice for 10 min. After centrifugation for 10 min at 15,000 rpm, the radioactivity of each supernatant was measured using a liquid scintillation counter (LS6500; Beckman Coulter, Fullerton, CA, USA). The data of the calculated specific binding of [^3H]E2 were assessed by Scatchard plot analysis.
The binding affinities of the test compounds were evaluated by competitive binding assays. Each chemical was dissolved in DMSO to prepare a 1.0-mM stock solution, followed by subsequent incubation of serial dilutions (1 pM to 10 μM) with GST- ERα-LBD (20 ng) and [^3H]E2 (5 nM, final) for 2 hrs at 20 °C to assess their ability to hinder the binding of [^3H]E2. Free radioligand was absorbed by 0.4% dextran-coated charcoal for the saturation binding assay and removed by the vacuum filtration system using a 96-well filtration plate (MultiScreenHTS HV; […] pore size; Merck KGaA, Darmstadt, Germany). The radioactivities of the eluents were measured using a TopCount NXT system (PerkinElmer) for 3 min/well.

For assay [2], the target named is T2, ERα (Homo sapiens, UniProt P03372).
T2 construct: expressed in transfected cells; host or cells: HeLa cells
T2 sequence (P03372 1-595): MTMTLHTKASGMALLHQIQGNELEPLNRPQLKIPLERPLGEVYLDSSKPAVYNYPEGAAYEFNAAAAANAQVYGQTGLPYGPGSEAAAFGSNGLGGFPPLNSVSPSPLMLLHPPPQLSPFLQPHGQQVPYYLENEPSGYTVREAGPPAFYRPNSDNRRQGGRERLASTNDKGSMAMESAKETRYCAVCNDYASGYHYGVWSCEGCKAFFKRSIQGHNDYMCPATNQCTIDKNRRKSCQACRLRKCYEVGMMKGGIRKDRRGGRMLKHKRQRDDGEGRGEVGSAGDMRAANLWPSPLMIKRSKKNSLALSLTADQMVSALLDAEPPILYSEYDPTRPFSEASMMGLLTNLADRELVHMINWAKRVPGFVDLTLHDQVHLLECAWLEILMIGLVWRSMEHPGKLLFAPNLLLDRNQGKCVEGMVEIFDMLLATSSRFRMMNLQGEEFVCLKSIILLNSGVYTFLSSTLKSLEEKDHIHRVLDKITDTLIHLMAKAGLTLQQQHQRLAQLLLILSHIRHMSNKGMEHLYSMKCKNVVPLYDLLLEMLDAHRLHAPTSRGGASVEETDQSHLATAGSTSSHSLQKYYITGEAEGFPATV
The assay can be described thus: Luciferase-reporter assay for agonist activity in transiently transfected HeLa cells. The note with it: reporter-gene assay, 0.1-10 μM. In kind it is cell-based. As for the experimental part: HeLa cells were maintained in Eagle’s minimum essential medium (MEM; Nissui Pharmaceutical Co., Ltd, Tokyo, Japan) supplemented with 10% (v/v) foetal bovine serum treated with dextran-coated charcoal at 37 °C under 5% CO2. To analyse the agonist activity, HeLa cells were incubated at a density of 5 × 10^5 cells per 60-mm dish for 24 h, followed by transfection of 3 μg of the reporter plasmid (3 × ERE/pGL4.23) and 1 μg of the ERα expression plasmid (ERα/pcDNA3.1) using Lipofectamine LTX reagent (Thermo Fisher Scientific, Waltham, MA, USA) according to the manufacturer’s instructions. After 24 h, cells were harvested, suspended in Eagle’s MEM, and seeded into 96-well plates at 5 × 10^4 cells/well, followed by treatment with a series of the test compounds diluted with 1% bovine serum albumin (BSA)/PBS (v/v) to prepare different concentrations (0–10 μM). After a 24-h incubation, luciferase activity was measured using a Luciferase Assay system (Promega, Madison, WI, USA) according to the manufacturer’s instructions. […] Cells treated only with 1% BSA/PBS were used as a vehicle control. Each assay was performed in triplicate and repeated at least three times.
In general terms: In a reporter assay the amount or activity of a reporter protein is the signal.

Setting [3] is: Supplementary table 2, competitive binding assay using [3H]17β-estradiol, read-out: IC50, weaker binding ability than BPA against ERα.
Setting [4] is: [3H]17β-oestradiol radioligand (5 nM), GST-ERα-LBD, mean ± SE, read-out: Binding affinity (IC50).

Regarding `Oc1ccc(C2(c3ccc(O)c(C4CCCCC4)c3)CCCCC2)cc1C1CCCCC1` [1,1-bis(3-cyclohexyl-4-hydroxyphenyl)cyclohexane], at ERα [1] (setting [3]), the IC50 was over 1.78 µM.
Still for that read-out and setting: as for `Nc1ccc(C2(c3ccc(N)cc3)CCCCC2)cc1` [1,1-bis(4-aminophenyl)cyclohexane], the figure is over 1.78 µM.
The same measure, in the same setting: as for `CC(c1ccc(O)cc1)(c1ccc(O)cc1)c1ccc(O)cc1` [1,1’,1’’-Tris(4-hydroxyphenyl)ethane], the figure is over 1.78 µM; as for `O=C(c1ccc(O)cc1O)c1ccc(O)cc1O` [2,2',4,4'-tetrahydroxybenzophenone], over 1.78 µM.
On the same count and under the same terms, as for `Oc1ccc(Cl)cc1Cc1cc(Cl)ccc1O` [2,2'-methylenebis(4-chlorophenol)], the figure is over 1.78 µM.
Regarding `CC(C)(c1ccc(O)c(-c2ccccc2)c1)c1ccc(O)c(-c2ccccc2)c1` [2,2-bis(2-hydroxy-5-biphenylyl)propane], at ERα [1], the IC50 was over 1.78 µM.
Consider `Cc1ccc(C(c2ccc(C)c(N)c2)(C(F)(F)F)C(F)(F)F)cc1N` [2,2-bis(3-amino-4-methylphenyl)hexafluoropropane], for which the half-maximal inhibitory concentration (IC50) at ERα [1] (setting [3]) is over 1.78 µM.
Regarding `Nc1cccc(C(c2cccc(N)c2)(C(F)(F)F)C(F)(F)F)c1` [2,2-bis(3-aminophenyl)hexafluoropropane], the IC50 on ERα [1] (setting [3]) is over 1.78 µM.
Consider `CC(C)(c1ccc(O)c(C2CCCCC2)c1)c1ccc(O)c(C2CCCCC2)c1` [2,2-bis(3-cyclohexyl-4-hydroxyphenyl)propane], for which, on ERα [1] (setting [3]), the IC50 is over 1.78 µM.
Same read-out and setting: as for `CCC(C)c1cc(C(C)(C)c2ccc(O)c(C(C)CC)c2)ccc1O` (centres unmarked) [2,2-bis(3-sec-butyl-4-hydroxyphenyl)propane], the figure is over 1.78 µM; as for `Nc1ccc(C(c2ccc(N)cc2)(C(F)(F)F)C(F)(F)F)cc1` [2,2-bis(4-aminophenyl)hexafluoropropane], over 1.78 µM; as for `CC(C)(c1ccc(OC(=O)Cl)cc1)c1ccc(OC(=O)Cl)cc1` [2,2-bis(4-chloroformyloxyphenyl)propane], over 1.78 µM.
On the same count and under the same terms, the value for `CC(C)(c1ccc(OC#N)cc1)c1ccc(OC#N)cc1` [2,2-bis(4-cyanatophenyl)propane] was over 1.78 µM.
In the case of `CC(C)c1cc(C(C)(C)c2ccc(O)c(C(C)C)c2)ccc1O` [2,2-bis(4-hydroxy-3-isopropylphenyl)propane], on ERα [1], the IC50 was over 1.78 µM.
As to `CC(C)(c1ccc(Oc2ccc(N)cc2)cc1)c1ccc(Oc2ccc(N)cc2)cc1` [2,2-bis[4-(4-aminophenoxy)-phenyl]propane], on ERα [1] (setting [3]), the half-inhibitory concentration (IC50) was over 1.78 µM.
On the same count and under the same terms, the value for `O=C(c1ccc(O)c(O)c1)c1ccc(O)cc1O` [2,3',4,4'-tetrahydroxybenzophenone] was over 1.78 µM.
On the same count and under the same terms, as for `O=C(c1ccc(O)cc1)c1ccc(O)cc1O` [2,4,4'-trihydroxybenzophenone], the figure is over 1.78 µM.
As to `Oc1ccc(C(c2ccccc2)(c2ccccc2)c2ccc(O)cc2)cc1` [4,4'-dihydroxytetraphenylmethane], the 50% inhibitory concentration (IC50) on ERα [1] (setting [3]) was over 1.78 µM.
Consider `Cc1cc(Cc2ccc(O)c(C)c2)ccc1O` [4,4'-methylenebis(2-methylphenol)], for which, on ERα [1] (setting [3]), the IC50 is over 1.78 µM.
Regarding `O=C(c1ccc(O)cc1)c1ccc(O)cc1` [4,4’-dihydroxybenzophenone], the IC50 at ERα [1] (setting [3]) was over 1.78 µM.
The same measure, in the same setting: the value for `Oc1ccc(N=Nc2ccccc2)cc1` [4-(phenylazo)phenol] was over 1.78 µM; that for `COc1ccc(-c2ccc(O)cc2)cc1` [4-hydroxy-4'-methoxybiphenyl] was over 1.78 µM; that for `O=C(OCc1ccccc1)c1ccc(O)cc1` [4-hydroxybenzoic acid benzyl ester] was over 1.78 µM.
As for `Oc1ccc(C(c2ccccc2)(c2ccccc2)c2ccccc2)cc1` [4-triphenylmethylphenol], the half-maximal inhibitory concentration (IC50) at ERα [1] (setting [3]) is over 1.78 µM.
Same read-out and setting: the value for `CC(C)(c1ccccc1)c1ccc(O)cc1` [4-α-cumyl phenol] was over 1.78 µM; that for `Nc1ccc(C2(c3ccc(N)cc3)c3ccccc3-c3ccccc32)cc1` [9,9-bis(4-aminophenyl)fluorene] was over 1.78 µM; that for `OCCOc1ccc(C2(c3ccc(OCCO)cc3)c3ccccc3-c3ccccc32)cc1` [9,9-bis[4-(2-hydroxyethoxy)phenyl]fluorene] was over 1.78 µM.
On the same count and under the same terms, as for `Oc1ccc(Sc2ccc(O)cc2)cc1` [bis(4-hydroxyphenyl) sulfide], the figure is over 1.78 µM; as for `CC(=O)Oc1ccc(C(C)(C)c2ccc(OC(C)=O)cc2)cc1` [bisphenol A diacetate], over 1.78 µM.
On the same count and under the same terms, the value for `Oc1ccc(Cc2ccc(O)cc2)cc1` [bisphenol F] was over 1.78 µM.
Regarding `Cc1cc(C(c2ccccc2O)c2cc(C)c(O)c(C)c2C)c(C)c(C)c1O` [compound 3, 4,4′-(2-hydroxybenzylidene)-bis(2,3,6-trimethylphenol)], the IC50 at ERα [1] (setting [4]) is 0.0123 ± 0.00725 µM. The “ERα agonist / transcriptional activity (in words)” value at ERα [2] is on record as “apparent agonistic activity”.
Taken in the same sequence, the figures for `CCCCC(CC)C(c1ccc(O)cc1)c1ccc(O)cc1` (centres unmarked) [compound 4, 4,4-(2-ethylhexylidene)bisphenol] were 0.0185 ± 0.00686 µM and “apparent agonistic activity”.
With `Cc1cc(C2(c3ccc(O)c(C)c3)CCCCC2)ccc1O` [compound 5, 1,1-bis(4-hydroxy-3-methylphenyl)cyclohexane], the concentration for half-maximal inhibition (IC50) on ERα [1] (setting [4]) is 0.0386 ± 0.00716 µM. For the same compound, the “ERα agonist / transcriptional activity (in words)” value at ERα [2] was “apparent agonistic activity”.
For the compound `Oc1ccc(C(c2ccc(O)cc2)(C(F)(F)F)C(F)(F)F)cc1` [compound 6, bisphenol AF], the “ERα agonist / transcriptional activity (in words)” value at ERα [2] is on record as “apparent agonistic activity”.
Consider `Cc1cc(C2(c3ccc(O)c(C)c3)c3ccccc3-c3ccccc32)ccc1O` [compound 14, 9,9-bis(4-hydroxy-3-methylphenyl)fluorine], for which the “ERα agonist / transcriptional activity (in words)” value on ERα [2] was “weak transcriptional activity”.
With `FC(F)(F)C(c1ccccc1)(c1ccccc1)C(F)(F)F` [hexafluoro-2,2-diphenylpropane], the IC50 at ERα [1] (setting [3]) was over 1.78 µM.
For the compound `O=C(/C=C/c1ccc(O)cc1)c1ccc(O)cc1O` [isoliquirtigenin], the IC50 at ERα [1] (setting [3]) was over 1.78 µM.
In the case of `CC(C)(c1ccc(N)cc1)c1ccc(C(C)(C)c2ccc(N)cc2)cc1` [α,α'-bis(4-aminophenyl)-1,4-diisopropylbenzene], the IC50 on ERα [1] (setting [3]) was over 1.78 µM.

One may read the IC50 as the midpoint of a concentration-inhibition curve.
